Reference: patent US6914056B1, “Pharmaceutical compositions comprising cyclic glycerophosphates and analogs thereof for promoting neural cell differentiation” (Yeda Research and Development Co., Ltd., priority 1999, dated 2005)
Entries after “also recorded” stand apart in the source; their conditions may differ.

B1: NGF: nerve growth factor, a growth factor that differentiates PC12 cells to neuronal cells (protein, UniProt P01139 122-241, looked up)
Beta-nerve growth factor: SSTHPVFHMGEFSVCDSVSVWVGDKTTATDIKGKEVTVLAEVNINNSVFRQYFFETKCRASNPVESGCRGIDSKHWNSYCTTTHTFVKALTTDEKQAAWRFIRIDTACVCVLSRKATRRG

How the values were obtained:
Format in all cases: cell-based, rat
PC12 cells [1] = assay: Neural outgrowth of PC12 cells after three-hour pulse and wash, photographed on day 7 (Example 14, FIG. 2); details: for neural outgrowth (microscopic photographs): PC12 cells pulsed for three hours, washed, grown in growth medium without factor, day 7 after treatment; for promotion of neuronal outgrowth (summary statement): PC12 adrenal tumorigenic cells in culture, after a short incubation period
Procedure: (§1) The immortal PC12 cell line is one of the most investigated systems in neuronal differentiation. In the presence of nerve growth factor these cells differentiate to neuronal cells. PC12 cells originated from rat pheochromocytoma were grown as monolayers in Eagle's medium (EM) supplemented with 10% fetal calf serum, 50 μg/ml gentamicin and 5 mM glutamine, in a humidified incubator buffered with 5% CO2, at 37° C. The culture medium is changed every four days and the cells are passaged every eight days and performed confluent monolayers (1.5×10^6 in a 10 cm plate or 10^5 cells per well in 24 wells plate). PC12 cells are originally round cells which, following several days in the presence of nerve growth factor (NGF) process nerves. Upon withdrawal of the NGF, the nerves retract and a process of apoptosis is initiated in the cells.
Cells were grown as described above and divided into groups which were each grown with one of the following:
The above factors were added to the cells for a period of three hours after which they were washed away from the cells. […] The neural outgrowth of the cells was monitored and microscopic photographs were taken on day seven after treatment with the above factors.

PC12 cells [2] = assay: Neural outgrowth of PC12 cells after consecutive seven-day incubation (Example 15, FIG. 3); details: PC12 cells incubated for consecutive 7 days; CGs at 0.5 μM
Procedure: as §1
The cells were incubated with the various factors for a consecutive period of seven days. Neural outgrowth was monitored and microscopic photographs were taken following the seven day incubation with the above factors.

PC12 cells [3] = assay: Nerve rescue of NGF-differentiated PC12 cells after NGF withdrawal, 14-day culture (Example 19, FIG. 4)
Procedure: as §1
To study nerve rescue by 1,3 cPP, PC12 cells were incubated in tissue culture medium for a period of 14 days. Within this period, the cells were either grown in the presence of nerve growth factor (NGF) for different periods of times or were grown in the presence of 1,3, cPP for various periods of time. Neuronal differentiation and spread was examined in the various cells.

PC12 cells [4] = assay: Neuronal outgrowth of PC12 cells, factors in growth medium for 48 hours (Example 12, FIG. 1); details: 48 hours in growth medium with factor, 1,3 cGP 1 μM, NGF 50 ng/ml, α glycerophosphate as control
Procedure: as §1
PC12 cells were grown in culture as explained above, the cells were divided into three groups and different factors were added to the growth medium of each group for 48 hours as follows: • Group A—α glycerophosphate. • Group B—nerve growth factor (NGF) at a concentration of 50 ng/ml. • Group C —1,3 cGP at a concentration of 1 μM.
The rate of neuronal growth in each of the above cultures was monitored and documented by microscopic photographs.

| Molecule | neural outgrowth (microscopic photographs) (PC12 cells [1]) | neural outgrowth (microscopic photographs) (PC12 cells [2]) | rescue of the neuronal network from retraction (PC12 cells [3]; PC12 cells 7 days with NGF 50 ng/ml, then 7 days with 2 μM, 4 μM or 6 μM 1,3 cPP) | neural outgrowth (microscopic photographs) (PC12 cells [4]) | promotion of neuronal outgrowth (summary statement) (PC12 cells [1]) | neural outgrowth (microscopic photographs) (PC12 cells [4]; listed as 1,3 GP) | nerve retraction after NGF withdrawal (PC12 cells [3]; PC12 cells 7 days with NGF 50 ng/ml, then 7 days without NGF) | neuronal differentiation (PC12 cells [3]; PC12 cells grown with NGF 50 ng/ml for full 14 days) |
| --- | --- | --- | --- | --- | --- | --- | --- | --- |
| O=P1(O)OCCCO1 [1,3 cPP, 1,3 cyclic propanediol phosphate] | Neural outgrowth is seen | neural outgrowth is observed to different extents | partial to full rescue of the neuronal network | – | – | – | – | – |
| phenyl 1,3 cyclic glycerophosphate [phenyl-1,3 cGP] | Neural outgrowth is seen | neural outgrowth is observed to different extents | – | – | – | – | – | – |
| phenyl 1,3 cyclic propanediol phosphate [phenyl-1,3 cPP] | Neural outgrowth is seen | neural outgrowth is observed to different extents | – | – | – | – | – | – |
| O=P(O)(O)OCC(O)CO (stereo in doubt) [αGP, L-α-glycerophosphate, reference compound] | – | No neural outgrowth was observed | – | did not promote neural outgrowth | – | – | – | – |
| O=P1(O)OCC(CO)O1 (centres unmarked) [1,2 cGP, 1,2 cyclic glycerophosphate] | Neural outgrowth is seen | neural outgrowth is observed to different extents | – | – | capable of promoting neuronal outgrowth | – | – | – |
| O=P(O)(O)OC(CO)CO [βGP, β-Glycerophosphate, reference compound] | – | No neural outgrowth was observed | – | – | – | – | – | – |
| O=P1(O)OCC(O)CO1 (centres unmarked) [1,3 cGP, 1,3 cyclic glycerophosphate] | Neural outgrowth is seen | neural outgrowth is observed to different extents | – | neural outgrowth was clearly seen | capable of promoting neuronal outgrowth | Neuronal outgrowth is clearly seen | – | – |
| B1 | did not promote any nerve generation | neural outgrowth was seen; also recorded: extensive neural outgrowth is seen | – | neural outgrowth was clearly seen; also recorded: Neuronal outgrowth is clearly seen | – | – | complete nerve retraction was observed | full neuronal differentiation |
